Measured values reported in patent US12625141B2, “Fluorescent dye, preparation method and uses thereof” (FLUORESCENCE DIAGNOSIS (SHANGHAI) BIOTECH COMPANY LTD., priority 2019, dated 2026).

Tests used:
[1] = Fluorescence emission in glycerol versus methanol (viscosity response); format: physicochemical; details: for Glycerol/methanol fluorescence intensity ratio: 1×10^-5 M in glycerol and methanol, maximum excitation wavelength of each dye; for Emission (nm): 1×10^-5 M, maximum excitation wavelength of each fluorescent dye
[2] = tested on: ACTB-4Pepper RNA aptamer (skeleton protein mRNA) in 293T/17 cell line; assay: Labeling intracellular mRNA, flow detection; format: cell-based; details: 0.2 μM in PBS, incubated for 5 minutes
Source text: FIGS. 18A and 18B are the application of molecular rotors III-3, III-43 in labeling intracellular mRNA.

[3] = Fluorescence emission at different viscosity conditions in diethanol-glycerol mixed solution; format: physicochemical; details: 1×10^−5 M, excitation at 480 nm
[4] = tested on: RNA aptamer in cells; assay: Labeling intracellular RNA aptamers in cells; format: cell-based; details: for Fluorescence of cells not expressing the RNA aptamer: cells not expressing the RNA aptamer (FIG. 17B); for Fluorescence of cells transcribing the RNA aptamer: cells transcribing the RNA aptamer (FIG. 17A)
[5] = tested on: F30-8Pepper-5 RNA aptamer; assay: Binding to RNA aptamer, optical properties after binding; details: for Em/nm / Ex/nm / ε / QY (−): after binding to RNA aptamer; for QY (−): relative method with Rhodamine 6G as the standard; for Kd: binding to RNA aptamer; for Activation Multiple: fluorescence activation after binding to RNA aptamer

| SMILES | Glycerol/methanol fluorescence intensity ratio [1] | Emission (nm) [1] [nm] | also measured |
| --- | --- | --- | --- |
| CN(C)c1ccc(/C=C(\C#N)c2ccc(C#N)cc2)cc1 [III-1] | 990 | 530 | – |
| CCN(CC)c1ccc(/C=C(\C#N)c2ccc(C#N)cc2)cc1 [III-2] | 870 | 530 | – |
| CN(CCO)c1ccc(/C=C(\C#N)c2ccc(C#N)cc2)cc1 [III-3] | 1025 | 530 | Background fluorescence in cells [2]: no obvious background fluorescence; Labeling of skeleton protein mRNA in cell lines expressing target RNA [2]: could specifically mark the mRNA of skeleton protein; Sensitivity of fluorescence intensity to viscosity [3]: sensitive to viscosity; Fluorescence of cells not expressing the RNA aptamer [4]: no fluorescence; Fluorescence of cells transcribing the RNA aptamer [4]: bright fluorescence; Em/nm [5]: 530 nm; Ex/nm [5]: 485 nm; ε [5]: 65300 M⁻¹ cm⁻¹; QY (−) [5]: 0.66; Kd [5]: 3.5 nM; Activation Multiple [5]: 3595 |
| CN(C)CCN(C)c1ccc(/C=C(\C#N)c2ccc(C#N)cc2)cc1 [III-4] | 892 | 521 | Sensitivity of fluorescence intensity to viscosity [3]: sensitive to viscosity; Fluorescence of cells not expressing the RNA aptamer [4]: no fluorescence; Fluorescence of cells transcribing the RNA aptamer [4]: bright fluorescence; Em/nm [5]: 514 nm; Ex/nm [5]: 458 nm; ε [5]: 44100 M⁻¹ cm⁻¹; QY (−) [5]: 0.45; Activation Multiple [5]: 4748 |
| CN(CCO)c1cnc(/C=C(\C#N)c2ccc(C#N)cc2)cn1 [III-6] | 1148 | 490 | Fluorescence of cells not expressing the RNA aptamer [4]: no fluorescence; Fluorescence of cells transcribing the RNA aptamer [4]: bright fluorescence; Em/nm [5]: 497 nm; Ex/nm [5]: 435 nm; ε [5]: 54700 M⁻¹ cm⁻¹; QY (−) [5]: 0.57; Kd [5]: 6.7 nM; Activation Multiple [5]: 16601 |
| CN(C)CCN(C)c1cnc(/C=C(\C#N)c2ccc(C#N)cc2)cn1 [III-7] | 977 | 485 | Fluorescence of cells not expressing the RNA aptamer [4]: no fluorescence; Fluorescence of cells transcribing the RNA aptamer [4]: bright fluorescence; Em/nm [5]: 485 nm; Ex/nm [5]: 443 nm; ε [5]: 49100 M⁻¹ cm⁻¹; QY (−) [5]: 0.42; Kd [5]: 8 nM; Activation Multiple [5]: 691 |
| CN(CCO)c1ccc(/C=C(\C#N)c2ccc(C#N)cc2)cn1 [III-8] | 1168 | 495 | – |
| CCN(CC)CCN(C)c1ccc(/C=C(\C#N)c2ccc(C#N)cc2)cn1 [III-9] | 920 | 490 | – |
| CN(C)c1ccc(/C=C(\C#N)c2ccc(C#N)cc2)nc1 [III-10] | 1620 | 520 | – |
| CN(CCO)c1ncc(/C=C(\C#N)c2ccc(C#N)cc2)cn1 [III-11] | 869 | 470 | – |
| CN(C)CCN(C)c1cnc(/C=C(\C#N)c2ccc(C#N)cc2)nc1 [III-12] | 855 | 542 | – |
| CN(CCO)c1ccc(/C=C(\C#N)c2ccc(C#N)cn2)cc1 [III-13] | 752 | 545 | – |
| CN(CCO)c1ccc(/C=C(\C#N)c2cnc(C#N)cn2)cc1 [III-14] | 785 | 550 | – |
| N#C/C(=C\c1cc2c3c(c1)CCCN3CCC2)c1ccc(C#N)cc1 [III-15] | 1011 | 561 | – |
| CN1CCc2cc(/C=C(\C#N)c3ccc(C#N)cc3)ccc21 [III-16] | 491 | 555 | – |
| CNc1ccc2cc(/C=C(\C#N)c3ccc(C#N)cc3)sc2c1 [III-17] | 828 | 587 | – |
| CN(CCO)c1ccc2cc(/C=C(\C#N)c3ccc(C#N)cc3)sc2c1 [III-18] | 978 | 595 | Fluorescence of cells not expressing the RNA aptamer [4]: no fluorescence; Fluorescence of cells transcribing the RNA aptamer [4]: bright fluorescence; Em/nm [5]: 599 nm; Ex/nm [5]: 515 nm; ε [5]: 54400 M⁻¹ cm⁻¹; QY (−) [5]: 0.43; Kd [5]: 18 nM; Activation Multiple [5]: 708 |

| SMILES | Glycerol/methanol fluorescence intensity ratio [1] | Emission (nm) [1] [nm] | also measured |
| --- | --- | --- | --- |
| CN(C)c1cc2sc(/C=C(\C#N)c3ccc(C#N)cc3)cc2s1 [III-19] | 991 | 620 | – |
| CCN(CC)c1cc2sc(/C=C(\C#N)c3ccc(C#N)cc3)cc2s1 [III-20] | 836 | 620 | – |
| CN(CCO)c1cc2sc(/C=C(\C#N)c3ccc(C#N)cc3)cc2s1 [III-21] | 544 | 620 | Fluorescence of cells not expressing the RNA aptamer [4]: no fluorescence; Fluorescence of cells transcribing the RNA aptamer [4]: bright fluorescence; Em/nm [5]: 620 nm; Ex/nm [5]: 577 nm; ε [5]: 10000 M⁻¹ cm⁻¹; QY (−) [5]: 0.58; Kd [5]: 6.1 nM; Activation Multiple [5]: 12600 |
| CN(C)c1ccc(-c2ccc(/C=C(\C#N)c3ccc(C#N)cc3)cc2)cc1 [III-22] | 989 | 650 | – |
| CN(C)c1ccc(-c2ccc(/C=C(\C#N)c3ccc(C#N)cc3)s2)cc1 [III-23] | 687 | 661 | – |
| N#C/C(=C\c1ccc(-c2ccc(N3CCOCCOCCOCCOCC3)cc2)s1)c1ccc(C#N)cc1 [III-24] | 596 | 662 | – |
| CCN(CC)c1ccc(-c2ccc(/C=C(\C#N)c3ccc(C#N)cc3)s2)s1 [III-25] | 783 | 678 | – |
| CN(C)c1ccc(-c2ccc(/C=C(\C#N)c3ccc(C(=O)O)cc3)s2)s1 [III-26] | 368 | 676 | – |
| CN(CCO)c1cc2sc3cc(/C=C(\C#N)c4ccc(C#N)cc4)sc3c2s1 [III-28] | 559 | 662 | Sensitivity of fluorescence intensity to viscosity [3]: sensitive to viscosity |
| CCOC(=O)c1ccc(/C(C#N)=C/c2cc3sc4cc(N(C)C)sc4c3s2)cc1 [III-29] | 684 | 665 | – |
| CN(C)c1cc2sc3cc(/C=C(\C#N)c4ccc([S+](C)[O-])cc4)sc3c2s1 (centres unmarked) [III-30] | 756 | 660 | – |
| CN(CCO)c1cc2c(s1)-c1sc(/C=C(\C#N)c3ccc(S(N)(=O)=O)cc3)cc1[Si]2(C)C [III-32] | 817 | 690 | – |
| CN(CCO)c1cc2c(s1)-c1sc(/C=C(\C#N)c3ccc(C#N)cc3)cc1[Si]2(C)C [III-33] | 691 | 705 | – |
| CN(CCO)c1cc2c(s1)-c1sc(/C=C(\C#N)c3ccc(C(N)=O)cc3)cc1C2(C)C [III-34] | 489 | 689 | Sensitivity of fluorescence intensity to viscosity [3]: sensitive to viscosity |
| COCCOCCOCCOCCOCCN(C)c1cc2c(s1)-c1sc(/C=C(\C#N)c3ccc(C#N)cc3)cc1C2(C)C [III-35] | 710 | 690 | – |
| CN(CCO)c1ccc(/C=C(\C#N)c2nc3ccccc3s2)cc1 [III-43, reference compound] | – | – | Background fluorescence in cells [2]: higher than III-3; Labeling of skeleton protein mRNA in cell lines expressing target RNA [2]: unclear whether ACTB was expressed |
